Like-named read-outs stand apart in the source and are kept apart here.
How the values were obtained:
[1] = Color of pigmented and complete PUDs (ISO 7724-2); assay type: physicochemical
From the text: (§1) Tests were first performed to determine the coalescing agent level for pigmented and complete PUD formulations in order to achieve the optimum film formation. Complete paints were mixed with 0.7 wt. %, 1.5 wt. %, 3.0 wt. % and 5.0 wt. % of coalescing agents and applied on tin plated steel at a wet film thickness of around 250 μm, where the weight percentage was based on the pure polyurethane dispersion resins. […] Based on the observations, 3 wt. % dosage of coalescing agent was selected. Complete PUD formulations with pigments, fillers and other additives were prepared as per Table 5, and used to test and determine the coalescing properties of the caprolactam-derived solvents and other known coalescing agents.
(§2) Gloss measurements serve as an indicator of the paints surface quality. Gloss and color measurements were determined according to the ISO 2813 standard and the ISO 7724-2 standard (SCI-D65/10°), respectively.

[2] = Drying time (ASTM D1640 / ASTM D5895); assay type: physicochemical; settings: 200 μm humid film; blends by ASTM D1640, single solvents by ASTM D5895
From the text: as §1
The drying times for the pigmented PUD formulations were determined according to the ASTM D1640 “Standard Test Methods for Drying, Curing, or Film Formation of Organic Coatings” standard or the ASTM D5895 “Standard Test Methods for Evaluating Drying or Curing During Film Formation of Organic Coatings Using Mechanical Recorders” standard. Four stages of drying can be identified depending on the trace left by the needle on the paint surface: Stage 1—Set-to-Touch time, Stage 2—Tack-Free time, Stage 3—Dry-Hard time, and Stage IV—Dry trough time. However, Stage IV is often hard to detect.
In general, the paints were applied at a humid film thickness of 200 μm by means of a bar coater on a Leneta sheet and the needle rate was set at 60 cm/hr.
For the present examples, the drying times for the 2:1 A:B, 1:1 A:B, and 1:2 A:B solvents were determined using the ASTM D1640 standard, and the drying times for NM CPL, NE CPL, NMP, NBP, ester amide, and ester alcohol were determined using the ASTM D5895 standard.

Open time (ASTM D7488) = assay type: physicochemical; settings: ASTM D7488, 23±2° C., 50±5% RH, wet film 200 μm
From the text: as §1
Open times were determined according to the ASTM D7488 “Test Method for Open Time of Latex” standard and the tests were performed under controlled temperature and humidity (23±2° C. and 50±5% RH). In general, the paints were applied at a wet film thickness of 200 μm on contrasting sealed charts by means of a doctor blade applicator, and “X” marks are made immediately with the wide curved end of a wooden paint brush. After a determined time internal, the brush was dipped into the paint to be tested and brushing of the X-marks was started in perpendicular direction to the initial drawdown using 10 strokes back and forth to work the paint under test into the drawdown area. This procedure is repeated after several time intervals. After their complete drying (1 week), the painted panels are observed by two different observers and the time for which the “X” marks to become visible is considered as the open time.

[3] = Gloss of pigmented and complete PUDs (ISO 2813); assay type: physicochemical
From the text: as §1, §2

[4] = Scrub resistance of pigmented and complete PUDs (ISO 11998); assay type: physicochemical; settings: for Wt. Loss: 200 wet-scrub cycles; for Loss of thickness after 200 wet-scrub cycles: calculated from weight loss
From the text: as §1
Scrub resistance was tested according the ISO 11998 “Paints and Varnishes—Determination of Wet-Scrub Resistance and Cleanability of Coatings” standard. In this testing method, the paint was applied on a test panel (Leneta sheet) using a film applicator at the specific gap clearance. After drying and conditioning for four weeks at room temperature the coated panel was weighed and subject to 200 wet-scrub cycles in a scrub resistance machine. The panel was then washed, dried and weighed to determine the loss from which the mean loss in film thickness was calculated. […] For instance, N-methyl caprolactam (NM CPL), N-ethyl caprolactam (NE CPL), and blends thereof in the ratios of 1:2 and 1:1, all had less loss of thickness (2.035 μm, 1.797 μm, 1.39 μm, and 1.64 μm, respectively) as compared to NMP (2.090 μm) and NBP (2.213 μm).

[5] = Freeze and thaw stability (ASTM D2243-95); assay type: physicochemical; settings: for freeze-thaw stability: viscosity change (thickening of the paint): cycles of 16 hours at −20° C. and 8 hours at room temperature
Procedure: Water-based emulsions and dispersions are susceptible to irreversible coagulation by freezing. Freeze and thaw stability was tested according the ASTM D2243-95 standard.
For these examples, pigmented PUD paints were subject to freeze-thaw cycles of 16 hours at −20° C. and 8 hours at room temperature and subsequently subject to visible observations. The paints were then applied on a tin plated steel plate at a thickness of approximately 200 μm for observing film properties.
In addition, the freeze-thaw stability was best for caprolactam-derived coalescing agents (NM CPL) and the blends even after subject to five cycles (see FIG. 9). In particular, the paints were visually observed after each cycle to see if there was any viscosity change, i.e., thickening of the paint. Then, the dry films of the coatings were observed visually.

[6] = Persoz hardness of pigmented and complete PUDs; assay type: physicochemical; settings: pigmented
From the text: as §1
Persoz hardness measurements were performed on pigmented paints that were applied on tin plated steel using a doctor blade applicator at a dry film thickness (DFT) around 50 μm according to the ISO 1522 standard. […] For instance, the 28 day hardness for N-ethyl caprolactam (NE CPL) was approximately 104.6±0.5, while the 28 day hardness for NMP was approximately 108.8±2.4, and the 28 day hardness for ester alcohol and N-methyl caprolactam (NM CPL) were approximately 124.8±1 and 126.0±1, respectively, while the 28 day hardness for NBP was approximately 135.8±5.

[7] = MFFT of pigmented and complete PUDs; assay type: physicochemical; settings: pigmented and complete PUD, 3 wt. % coalescing agent
From the text: as §1, with “agents. The standard test for determining this temperature involves using a MFFT-BAR, as specified by standards ASTM D 2354 and ISO 2115. In general, the MFFT of a paint or coating is reduced temporarily by the use of coalescing agents.” for “agents.”

[8] = Solubility of DMPA in solvents
Procedure: Solubility was tested between the various solvents to determine their applicability in the PUD manufacturing processes. Solubility is the amount of a substance (coalescing agent) that dissolves in a unit volume of a liquid substance (solvent) to form a saturated solution under specified conditions of temperature and pressure. For the examples, amounts of […] (DMPA) were dissolved in each solvent.

[9] = Minimum film forming temperature, non-pigmented resin + coalescing agent; assay type: physicochemical; settings: resin with 5 wt. % coalescing agent, film thickness 350 μm
[10] = Viscosity and storage stability of pigmented PUD formulations; assay type: physicochemical; settings: 1 month at 50° C., FIG. 5
From the text: as §1
Dispersions and emulsions tend to aggregate polyurethane particles during storage. One way to determine the stability of a polyurethane dispersion is to measure viscosity of the polyurethane dispersion over time. Viscosity is a measure of a solvent's resistance to gradual deformation by shear stress or tensile stress. […] The storage stability of the dispersions was evaluated based on variations between viscosity measurements performed on paints shortly after their preparation and after their storage for either one month at room temperature or one month at 50° C.

Compound | Color (Black background) L* [1] | Color (Black background) a* [1] | Color (Black background) b* [1] | Color (White background) L* [1] | Color (White background) a* [1] | Color (White background) b* [1] | Drying Time [2] | Open Time (Open time (ASTM D7488)) | Gloss 20° [3] | Gloss 60° [3] | Gloss 85° [3] | Wt. Loss [4] | Loss of thickness after 200 wet-scrub cycles [4] | Persoz Hardness ([6]; 1 Day, in s) | Persoz Hardness ([6]; 7 Days, in s) | Persoz Hardness ([6]; 14 Days, in s) | Persoz Hardness ([6]; 21 Days, in s) | MFFT [7] | MFFT [9] | Solubility [8] | also measured
2, 2, 4-trimethyl-1,3-pentanediol monoisobutyrate [Ester alcohol, reference compound] | 94.93 | −0.87 | 2.30 | 95.6 | −0.51 | 3.16 | 13.6 min | 10 min | 1.3 ± 0 | 3.0 ± 0 | 19.6 ± 0.3 | 7.747 g/m^2 | 4.439 µm | 98.2 ± 3 | 118.0 ± 1 | 120.0 ± 2 | 122.0 ± 2 | −0.4 °C | – | – | freeze-thaw stability: viscosity change (thickening of the paint) [5]: thickening of the paint samples after two cycles; Persoz Hardness ([6]; 28 Days): approximately 124.8±1; Persoz Hardness ([6]; 28 Days, in s): 124.8 ± 1
COC(=O)CCCCC(=O)N(C)C [Ester amide, Hexanoic acid, 6-(dimethylamino)-6-oxo, methyl ester] | 93.84 | −1.05 | 2.03 | 94.98 | −0.51 | 3.29 | 13.3 min | 12 min | 1.3 ± 0 | 3.3 ± 0 | 24.2 ± 0.2 | 7.920 g/m^2 | 4.040 µm | – | – | – | – | −0.6 °C | – | – | Solubility ([8]; DMPA dissolved in each solvent): 10.0 g/100 g of Solvent
CCCCN1CCCC1=O [NBP, N-butyl pyrrolidone, reference compound] | 94.00 | −1.04 | 2.20 | 95.01 | −0.56 | 3.32 | 11.8 min | 12 min | 1.3 ± 0 | 2.8 ± 0 | 19.9 ± 0.2 | 4.142 g/m^2 | 2.213 µm | 64.4 ± 3 | 127.0 ± 2 | 133.2 ± 5 | 136.6 ± 6 | −0.7 °C | −0.4±0.2 °C | – | freeze-thaw stability: viscosity change (thickening of the paint) [5]: thickening of the paint samples after two cycles
CN1CCCC1=O [NMP, N-methyl pyrrolidone, reference compound] | 94.55 | −0.88 | 2.20 | 95.14 | −0.52 | 3.02 | 19.8 min | 12 min | 1.3 ± 0 | 3.6 ± 0 | 30.7 ± 0.6 | 3.372 g/m^2 | 2.090 µm | 94.2 ± 0.4 | 101.0 ± 2.4 | 100.6 ± 1.7 | 107.6 ± 1.3 | −1.4 °C | – | 54.0 g/100 g of Solvent | –
CCCCN1CCCCCC1=O [N—BuCPL, N-butyl caprolactam] | – | – | – | – | – | – | – | – | – | – | – | – | – | – | – | – | – | – | −1.3±0.3 °C | 10.0 g/100 g of Solvent | –
CCN1CCCCCC1=O [N—EtCPL, N-ethyl caprolactam] | 94.45 | −0.92 | 2.46 | 95.04 | −0.61 | 3.24 | 17.4 min | 16 min | 1.3 ± 0 | 3.0 ± 0 | 24.5 ± 0.5 | 3.767 g/m^2 | 1.797 µm | 101.0 ± 1.0 | 102.0 ± 0.7 | 101.4 ± 2.6 | 104.0 ± 2.8 | −2.4 °C | −1.4±0.3 °C | 20.0 g/100 g of Solvent | effect on color (yellowing) ([1]; pigmented PUD): no yellowing; storage stability (viscosity buildup) [10]: low viscosity buildup; freeze-thaw stability and film properties (comparison) ([5]; FIGS. 8 and 9): better freeze-thaw stability and film properties than NBP and ester alcohol
N-butyl pyrrolidone [NBP, reference compound] | – | – | – | – | – | – | – | – | – | – | – | – | – | – | – | – | – | – | – | 20.0 g/100 g of Solvent | –
